Test results taken from ChEMBL document CHEMBL3352173, “Optimization of pyrrolamide topoisomerase II inhibitors toward identification of an antibacterial clinical candidate (AZD5099)” (J Med Chem, 2014).
≈ marks a conversion by molar mass, not a printed value.

How the values were obtained:
Enterococcus faecalis = experiment: Antimicrobial activity against vancomycin-resistant Enterococcus faecalis by broth microdilution/CLSI method; assay type: functional
Staphylococcus aureus [1] = experiment: Antibacterial activity against methicillin-sensitive Staphylococcus aureus ARC516 infected in neutropenic CD1 mouse thigh model assessed as decrease in bacterial viable counts at 30 mg/kg, ip after 24 hrs; assay type: functional; settings: route intraperitoneal
Staphylococcus aureus [2] = experiment: Antimicrobial activity against 2 times drug resistance selected Staphylococcus aureus ARC1692-2F by broth microdilution/CLSI method; assay type: functional
Mus musculus = experiment: fAUC in methicillin-sensitive Staphylococcus aureus ARC516 infected in neutropenic CD1 mouse thigh model at 30 mg/kg, ip q24; assay type: ADME, organism-based; parameters: dose 30 mg/kg, route intraperitoneal; settings: in vivo
Escherichia coli [3] = experiment: Antimicrobial activity against Escherichia coli tolC- by broth microdilution/CLSI method; assay type: functional; settings: Escherichia coli; read-out: MIC
Escherichia coli [4] = experiment: Antimicrobial activity against wild-type Escherichia coli Eco523 by broth microdilution/CLSI method; assay type: functional; settings: Escherichia coli, Eco523; read-out: MIC
Staphylococcus aureus [5] = experiment: Ratio of MIC for 2 times drug resistance selected Staphylococcus aureus ARC516-1F to MIC for Staphylococcus aureus ARC516; assay type: functional
[6] = Clearance in rat at 10 mg/kg, iv; assay type: ADME, organism-based; parameters: dose 10 mg/kg, route intravenous; settings: in vivo
Cytochrome P450 2C19 = Cytochrome P450 2C19 (Homo sapiens, UniProt P33261); experiment: Inhibition of human CYP2C19 at 50 uM; assay type: ADME
Cytochrome P450 2C19, sequence (P33261 whole entry): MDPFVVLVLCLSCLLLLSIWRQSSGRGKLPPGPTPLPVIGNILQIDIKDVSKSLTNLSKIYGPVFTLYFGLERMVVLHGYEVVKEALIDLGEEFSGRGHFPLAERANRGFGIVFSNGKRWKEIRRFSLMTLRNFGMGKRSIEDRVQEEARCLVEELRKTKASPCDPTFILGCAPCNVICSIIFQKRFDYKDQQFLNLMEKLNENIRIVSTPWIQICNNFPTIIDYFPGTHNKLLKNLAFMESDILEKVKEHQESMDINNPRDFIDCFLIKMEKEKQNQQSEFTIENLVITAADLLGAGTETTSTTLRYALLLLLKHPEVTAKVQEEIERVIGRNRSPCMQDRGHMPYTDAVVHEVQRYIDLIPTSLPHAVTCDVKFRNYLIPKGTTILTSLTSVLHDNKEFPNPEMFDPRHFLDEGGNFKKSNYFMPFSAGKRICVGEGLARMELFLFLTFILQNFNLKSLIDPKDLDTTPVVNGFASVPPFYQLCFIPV

[7] = Clearance in Wistar rat at 10 mg/kg, iv; assay type: ADME, organism-based; parameters: dose 10 mg/kg, route intravenous; settings: in vivo
Staphylococcus aureus [8] = experiment: Antimicrobial activity against 2 times drug resistance selected Staphylococcus aureus ARC516-2F by broth microdilution/CLSI method; assay type: functional
[9] = Bioavailability in Wistar rat at 10 mg/kg, […]; assay type: ADME, organism-based; settings: in vivo
Staphylococcus aureus [10] = experiment: Antimicrobial activity against 2 times drug resistance selected Staphylococcus aureus ARC2381-3F by broth microdilution/CLSI method; assay type: functional
[11] = Clearance in dog at 10 mg/kg, iv; assay type: ADME, organism-based, Canis lupus familiaris; parameters: dose 10 mg/kg, route intravenous; settings: plasma
Staphylococcus aureus [12] = experiment: Antimicrobial activity against Staphylococcus aureus ARC2381 by broth microdilution/CLSI method; assay type: functional
[13] = Selectivity ratio for human topoisomerase 2 alpha to bacterial type 2 topoisomerase
Staphylococcus aureus [14] = experiment: Antimicrobial activity against methicillin-sensitive Staphylococcus aureus by broth microdilution/CLSI method; assay type: functional; settings: Staphylococcus aureus; read-out: MIC
[15] = Percentage unbound in dog plasma; assay type: ADME, cell-free, Canis lupus familiaris
[16] = molecular target: ATP-binding cassette sub-family C member 2 (Homo sapiens, UniProt Q92887); experiment: Inhibition of ATPase activity of human MRP2 assessed as inorganic phosphate
ATP-binding cassette sub-family C member 2 (Homo sapiens, UniProt Q92887), sequence (Q92887 whole entry): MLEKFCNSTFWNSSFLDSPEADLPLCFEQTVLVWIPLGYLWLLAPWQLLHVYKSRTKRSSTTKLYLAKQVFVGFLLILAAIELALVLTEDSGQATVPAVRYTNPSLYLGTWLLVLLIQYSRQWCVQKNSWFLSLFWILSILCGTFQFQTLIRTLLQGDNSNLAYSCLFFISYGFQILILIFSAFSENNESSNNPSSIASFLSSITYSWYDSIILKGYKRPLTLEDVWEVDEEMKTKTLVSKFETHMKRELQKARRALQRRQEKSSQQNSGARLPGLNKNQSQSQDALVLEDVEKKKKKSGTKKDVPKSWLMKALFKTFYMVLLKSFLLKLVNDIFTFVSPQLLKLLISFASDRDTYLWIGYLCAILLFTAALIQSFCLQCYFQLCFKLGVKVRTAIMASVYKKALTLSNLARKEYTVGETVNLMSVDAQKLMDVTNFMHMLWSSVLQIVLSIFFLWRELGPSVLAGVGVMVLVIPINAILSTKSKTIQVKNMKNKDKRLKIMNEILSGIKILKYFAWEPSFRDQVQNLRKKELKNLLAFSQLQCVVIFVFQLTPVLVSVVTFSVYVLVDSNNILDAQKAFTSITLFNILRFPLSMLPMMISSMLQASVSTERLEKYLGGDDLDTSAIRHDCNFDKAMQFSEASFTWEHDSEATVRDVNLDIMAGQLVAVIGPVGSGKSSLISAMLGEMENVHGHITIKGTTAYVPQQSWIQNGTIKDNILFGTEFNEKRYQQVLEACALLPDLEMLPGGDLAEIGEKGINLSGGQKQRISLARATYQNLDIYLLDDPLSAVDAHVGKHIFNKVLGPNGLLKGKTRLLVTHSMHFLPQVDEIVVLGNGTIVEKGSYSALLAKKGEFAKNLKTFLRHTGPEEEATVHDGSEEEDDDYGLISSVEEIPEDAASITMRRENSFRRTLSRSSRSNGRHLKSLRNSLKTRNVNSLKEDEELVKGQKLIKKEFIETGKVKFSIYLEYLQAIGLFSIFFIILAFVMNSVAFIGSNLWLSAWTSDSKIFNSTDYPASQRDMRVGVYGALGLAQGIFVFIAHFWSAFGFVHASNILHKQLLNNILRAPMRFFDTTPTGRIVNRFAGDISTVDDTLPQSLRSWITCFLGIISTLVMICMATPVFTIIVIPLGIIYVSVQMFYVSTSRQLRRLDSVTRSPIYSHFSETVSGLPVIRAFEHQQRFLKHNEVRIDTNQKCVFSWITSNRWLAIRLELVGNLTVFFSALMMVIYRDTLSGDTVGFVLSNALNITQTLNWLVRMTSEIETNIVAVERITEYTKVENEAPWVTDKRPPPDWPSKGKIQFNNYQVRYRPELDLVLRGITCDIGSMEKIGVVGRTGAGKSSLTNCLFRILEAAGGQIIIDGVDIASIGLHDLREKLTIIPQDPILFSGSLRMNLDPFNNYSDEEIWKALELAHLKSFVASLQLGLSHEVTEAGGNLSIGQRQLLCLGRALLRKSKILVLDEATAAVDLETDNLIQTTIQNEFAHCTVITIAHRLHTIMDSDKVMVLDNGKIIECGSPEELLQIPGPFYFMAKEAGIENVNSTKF

[17] = molecular target: T1, ATP-binding cassette sub-family C member 2 (Rattus norvegicus, UniProt Q63120); experiment: Stimulation of ATPase activity of rat Mrp2 assessed as inorganic phosphate
T1 sequence (Q63120 whole entry): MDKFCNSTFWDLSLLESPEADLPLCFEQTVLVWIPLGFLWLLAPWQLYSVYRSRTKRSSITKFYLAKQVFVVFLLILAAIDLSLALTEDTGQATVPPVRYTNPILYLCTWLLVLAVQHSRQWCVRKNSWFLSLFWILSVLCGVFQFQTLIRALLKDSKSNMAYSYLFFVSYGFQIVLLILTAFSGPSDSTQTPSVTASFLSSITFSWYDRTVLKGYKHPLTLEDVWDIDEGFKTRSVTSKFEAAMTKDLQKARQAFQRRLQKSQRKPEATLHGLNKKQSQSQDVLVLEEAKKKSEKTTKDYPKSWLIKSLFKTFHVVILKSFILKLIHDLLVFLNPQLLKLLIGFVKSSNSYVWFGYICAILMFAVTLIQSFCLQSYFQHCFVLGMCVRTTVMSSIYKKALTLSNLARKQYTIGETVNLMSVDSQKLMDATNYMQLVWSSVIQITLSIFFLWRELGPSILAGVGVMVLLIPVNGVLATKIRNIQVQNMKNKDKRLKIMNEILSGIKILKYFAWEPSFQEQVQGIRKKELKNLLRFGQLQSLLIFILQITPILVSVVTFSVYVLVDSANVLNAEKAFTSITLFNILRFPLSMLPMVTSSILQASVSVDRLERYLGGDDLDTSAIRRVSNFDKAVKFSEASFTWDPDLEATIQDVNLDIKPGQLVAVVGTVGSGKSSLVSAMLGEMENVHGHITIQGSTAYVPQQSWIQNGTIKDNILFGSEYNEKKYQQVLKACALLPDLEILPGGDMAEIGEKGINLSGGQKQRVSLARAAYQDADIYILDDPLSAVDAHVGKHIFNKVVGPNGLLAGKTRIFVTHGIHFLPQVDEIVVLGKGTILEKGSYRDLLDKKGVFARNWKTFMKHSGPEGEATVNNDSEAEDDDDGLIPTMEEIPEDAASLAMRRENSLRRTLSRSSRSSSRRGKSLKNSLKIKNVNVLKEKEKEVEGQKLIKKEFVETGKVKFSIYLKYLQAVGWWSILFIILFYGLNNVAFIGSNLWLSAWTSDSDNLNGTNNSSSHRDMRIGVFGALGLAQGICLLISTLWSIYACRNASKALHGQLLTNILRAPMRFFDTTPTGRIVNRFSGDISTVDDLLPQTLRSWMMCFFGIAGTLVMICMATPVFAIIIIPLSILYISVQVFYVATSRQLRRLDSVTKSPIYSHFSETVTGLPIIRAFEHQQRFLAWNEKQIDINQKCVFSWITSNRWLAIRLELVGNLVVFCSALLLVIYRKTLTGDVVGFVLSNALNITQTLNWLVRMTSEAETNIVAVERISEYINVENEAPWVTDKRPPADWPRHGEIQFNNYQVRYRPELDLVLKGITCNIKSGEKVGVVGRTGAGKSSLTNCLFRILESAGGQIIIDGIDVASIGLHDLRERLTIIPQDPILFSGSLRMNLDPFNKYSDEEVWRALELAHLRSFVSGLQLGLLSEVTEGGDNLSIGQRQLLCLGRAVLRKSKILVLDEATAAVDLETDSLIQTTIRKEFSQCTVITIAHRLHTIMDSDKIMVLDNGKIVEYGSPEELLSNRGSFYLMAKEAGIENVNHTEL

Moraxella catarrhalis = experiment: Antimicrobial activity against Moraxella catarrhalis by broth microdilution/CLSI method; assay type: functional; settings: Moraxella catarrhalis; read-out: MIC
[18] = Octanol-phosphate buffer distribution coefficient, log D of the compound at pH 7.4 by shake flask method; assay type: physicochemical
[19] = Dissociation constant, pKa of the compound; assay type: physicochemical
[20] = molecular target: T1, ATP-binding cassette sub-family C member 2; experiment: Inhibition of ATPase activity of rat Mrp2 assessed as inorganic phosphate
[21] = molecular target: Voltage-gated inwardly rectifying potassium channel KCNH2 (Homo sapiens, UniProt Q12809); experiment: Inhibition of human ERG at 100 uM
Voltage-gated inwardly rectifying potassium channel KCNH2, sequence (Q12809 whole entry): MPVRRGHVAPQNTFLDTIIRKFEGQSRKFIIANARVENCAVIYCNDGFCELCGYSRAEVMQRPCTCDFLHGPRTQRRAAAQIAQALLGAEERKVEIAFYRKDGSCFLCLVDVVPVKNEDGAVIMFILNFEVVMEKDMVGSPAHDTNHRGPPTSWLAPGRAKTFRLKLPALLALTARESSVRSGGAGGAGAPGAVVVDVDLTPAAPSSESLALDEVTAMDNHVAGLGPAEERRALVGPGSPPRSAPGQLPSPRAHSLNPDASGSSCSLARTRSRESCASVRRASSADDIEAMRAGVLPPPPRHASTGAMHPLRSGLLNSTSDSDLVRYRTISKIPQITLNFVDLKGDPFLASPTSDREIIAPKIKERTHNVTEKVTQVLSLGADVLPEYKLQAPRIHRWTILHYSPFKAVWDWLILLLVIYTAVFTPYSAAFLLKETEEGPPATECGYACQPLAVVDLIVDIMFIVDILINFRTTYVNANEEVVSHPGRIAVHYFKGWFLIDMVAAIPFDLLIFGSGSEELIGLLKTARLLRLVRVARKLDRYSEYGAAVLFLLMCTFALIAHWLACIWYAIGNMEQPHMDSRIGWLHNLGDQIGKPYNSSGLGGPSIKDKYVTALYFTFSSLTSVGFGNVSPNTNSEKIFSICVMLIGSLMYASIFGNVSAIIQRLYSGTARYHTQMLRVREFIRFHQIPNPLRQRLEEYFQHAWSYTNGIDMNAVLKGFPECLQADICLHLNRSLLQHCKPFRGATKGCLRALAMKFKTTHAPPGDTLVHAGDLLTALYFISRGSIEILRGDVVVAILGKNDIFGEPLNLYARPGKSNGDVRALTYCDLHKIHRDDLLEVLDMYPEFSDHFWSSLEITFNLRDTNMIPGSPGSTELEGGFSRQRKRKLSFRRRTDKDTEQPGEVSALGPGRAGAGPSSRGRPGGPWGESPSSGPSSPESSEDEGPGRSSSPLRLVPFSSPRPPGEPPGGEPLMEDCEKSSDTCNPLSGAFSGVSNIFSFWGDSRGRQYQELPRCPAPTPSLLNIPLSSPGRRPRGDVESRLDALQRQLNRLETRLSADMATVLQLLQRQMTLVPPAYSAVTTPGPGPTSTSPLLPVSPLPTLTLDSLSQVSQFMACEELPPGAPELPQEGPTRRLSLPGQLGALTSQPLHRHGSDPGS

[22] = Solubility of the compound; assay type: physicochemical
Cytochrome P450 2C8 = molecular target: T2, Cytochrome P450 2C8 (Homo sapiens, UniProt P10632); experiment: Inhibition of human CYP2C8 at 50 uM; assay type: ADME
T2 sequence (P10632 whole entry): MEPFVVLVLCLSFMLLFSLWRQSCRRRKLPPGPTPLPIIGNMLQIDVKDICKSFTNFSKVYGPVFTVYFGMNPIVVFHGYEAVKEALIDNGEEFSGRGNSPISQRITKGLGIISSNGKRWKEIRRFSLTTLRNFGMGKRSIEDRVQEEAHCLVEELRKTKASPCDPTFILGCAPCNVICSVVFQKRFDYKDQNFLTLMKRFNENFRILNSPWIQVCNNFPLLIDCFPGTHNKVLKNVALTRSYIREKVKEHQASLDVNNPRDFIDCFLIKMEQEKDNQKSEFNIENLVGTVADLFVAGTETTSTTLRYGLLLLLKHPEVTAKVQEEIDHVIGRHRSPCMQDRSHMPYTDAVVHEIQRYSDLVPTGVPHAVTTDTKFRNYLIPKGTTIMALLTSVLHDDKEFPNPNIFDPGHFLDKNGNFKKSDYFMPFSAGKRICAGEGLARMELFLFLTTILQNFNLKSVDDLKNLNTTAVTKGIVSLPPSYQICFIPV

Staphylococcus aureus [23] = experiment: Ratio of MIC for 2 times drug resistance selected Staphylococcus aureus ARC1692-2F to MIC for Staphylococcus aureus ARC1692; assay type: functional
Enterococcus faecium = experiment: Antimicrobial activity against vancomycin-resistant Enterococcus faecium by broth microdilution/CLSI method; assay type: functional
Staphylococcus aureus [24] = experiment: Antimicrobial activity against Staphylococcus aureus by broth microdilution/CLSI method; assay type: functional
Staphylococcus aureus [25] = experiment: Antimicrobial activity against methicillin, quinolone-resistant Staphylococcus aureus by broth microdilution/CLSI method; assay type: functional; settings: Staphylococcus aureus; read-out: MIC
Staphylococcus aureus [26] = experiment: Antimicrobial activity against 2 times drug resistance selected Staphylococcus aureus ARC2398-2F by broth microdilution/CLSI method; assay type: functional
Cytochrome P450 2C9 = Cytochrome P450 2C9 (Homo sapiens, UniProt P11712); experiment: Inhibition of human CYP2C9 at 50 uM; assay type: ADME
[27] = Percentage unbound in rat plasma; assay type: ADME, cell-free

COC[C@H](C)NC(=O)c1nc(N2CC[C@@H](NC(=O)c3[nH]c(C)c(Cl)c3Cl)[C@@H](OC)C2)sc1C(=O)O [AZD-5099]
MIC90 (Enterococcus faecalis): 0.015 µg/mL (≈ 0.0273 µM) | fold change (FC) (Staphylococcus aureus [1]): 2 | MIC (Staphylococcus aureus [2]): 0.5 µg/mL (≈ 0.912 µM) | fAUC (Mus musculus): 5450 ng·h/mL | MIC (Escherichia coli [3]): 0.94 µg/mL (≈ 1.71 µM) | MIC (Escherichia coli [4]): 24 µg/mL (≈ 43.8 µM) | Ratio (Staphylococcus aureus [5]): 16 | clearance [6]: 14 mL/min/kg | inhibition (INH) (Cytochrome P450 2C19): Not Active | clearance [7]: 4 mL/min/kg | MIC (Staphylococcus aureus [8]): 0.25 µg/mL (≈ 0.456 µM) | bioavailability [9]: 81% | MIC (Staphylococcus aureus [10]): 0.13 µg/mL (≈ 0.237 µM) | clearance [11]: 0.64 mL/min/kg | MIC (Staphylococcus aureus [12]): 0.016 µg/mL (≈ 0.0292 µM) | Selectivity ratio [13]: 10000 | MIC (Staphylococcus aureus [14]): 0.036 µg/mL (≈ 0.0656 µM) | fraction unbound [15]: 0.062 | IC50 [16]: 59 µM | EC50 [17]: > 200 µM | MIC (Moraxella catarrhalis): < 0.008 µg/mL | logD [18]: 1.4 | pKa [19]: 4.2 | IC50 [20]: 200 µM | inhibition (INH) [21]: Not Active | solubility [22]: 960 µM (≈ 527 µg/mL) | inhibition (INH) (Cytochrome P450 2C8): Not Active | Ratio (Staphylococcus aureus [23]): 8 | MIC90 (Enterococcus faecium): 0.06 µg/mL (≈ 0.109 µM) | MIC90 (Staphylococcus aureus [24]): 0.06 µg/mL (≈ 0.109 µM) | MIC (Staphylococcus aureus [25]): 0.057 µg/mL (≈ 0.104 µM) | MIC (Staphylococcus aureus [26]): 0.5 µg/mL (≈ 0.912 µM) | inhibition (INH) (Cytochrome P450 2C9): Not Active | fraction unbound [27]: 0.034
